The text below walks through data of article doi:10.1101/2021.06.21.449268v1 (biorxiv, 2021).

Structures are written as SMILES. Like-named read-outs stand apart in the source and are kept apart here.

Experiment [1] has as its target T1, human i-20S β5i (Homo sapiens, UniProt P28062).
T1 sequence (P28062 73-276): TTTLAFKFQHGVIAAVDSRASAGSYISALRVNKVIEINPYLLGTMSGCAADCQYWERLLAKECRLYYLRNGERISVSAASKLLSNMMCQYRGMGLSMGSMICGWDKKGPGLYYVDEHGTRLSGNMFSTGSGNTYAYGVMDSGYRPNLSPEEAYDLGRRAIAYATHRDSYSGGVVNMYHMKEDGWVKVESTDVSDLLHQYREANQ
T1 sequence (P20618 29-241 partner): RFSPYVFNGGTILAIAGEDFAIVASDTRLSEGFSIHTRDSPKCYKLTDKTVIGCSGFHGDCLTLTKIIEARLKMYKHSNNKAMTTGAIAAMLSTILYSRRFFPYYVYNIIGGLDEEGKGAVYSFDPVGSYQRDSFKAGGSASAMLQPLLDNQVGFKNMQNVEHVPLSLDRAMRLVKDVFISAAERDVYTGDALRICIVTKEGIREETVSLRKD
Put plainly: fluorogenic peptidase assay. In kind it is biochemical. Particulars: 15 μM Ac-ANW-AMC; 0.4 nM i-20S; 0.02% SDS; pH 7.5; β5i active site.

Experiment [2] addresses T2, Pf20S β5 (Plasmodium falciparum, UniProt Q8IJT1).
T2 sequence (Q8IJT1 61-271): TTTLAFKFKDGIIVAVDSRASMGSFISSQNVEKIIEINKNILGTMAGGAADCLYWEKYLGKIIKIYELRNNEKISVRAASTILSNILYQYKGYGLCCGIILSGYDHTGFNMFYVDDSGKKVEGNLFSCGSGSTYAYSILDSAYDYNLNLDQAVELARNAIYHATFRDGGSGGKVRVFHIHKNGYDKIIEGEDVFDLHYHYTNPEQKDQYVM
T2 sequence (A0A5K1K7U1 29-240 partner): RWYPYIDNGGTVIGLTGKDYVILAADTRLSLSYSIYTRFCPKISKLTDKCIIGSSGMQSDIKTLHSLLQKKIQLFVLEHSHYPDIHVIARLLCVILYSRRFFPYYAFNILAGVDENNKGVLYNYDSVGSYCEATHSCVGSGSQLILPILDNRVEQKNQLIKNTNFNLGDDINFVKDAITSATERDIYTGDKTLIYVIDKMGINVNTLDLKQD
Put plainly: fluorogenic peptidase assay. It is filed as biochemical.

Experiment [3] concerns the target T3, human c-20S β5c (Homo sapiens, UniProt P28074).
T3 sequence (P28074 60-263): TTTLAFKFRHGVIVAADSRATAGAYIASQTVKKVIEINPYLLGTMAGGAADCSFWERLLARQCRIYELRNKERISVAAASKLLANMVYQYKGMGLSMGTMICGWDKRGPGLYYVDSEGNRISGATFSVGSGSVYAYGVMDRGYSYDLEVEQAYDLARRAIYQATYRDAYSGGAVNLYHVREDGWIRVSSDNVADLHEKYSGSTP
T3 sequence (P20618 29-241 partner): T1 sequence (P20618 29-241 partner)
Put plainly: fluorogenic peptidase assay. It is filed as biochemical. The following applies: 25 μM suc-LLVY-AMC; 0.2 nM c-20S; 0.02% SDS; pH 7.5; β5c active site.

Experiment [4] concerns the target T2, Pf20S β5. Put plainly: biochemical.
In experiment [5] the target is T1, human i-20S β5i. Particulars: read-out: IC50 (nM) i-20S; inhibitor.
For experiment [6], the target named is T3, human c-20S β5c. Particulars: read-out: IC50 (nM) c-20S; inhibitor.
In experiment [7] the test system is Plasmodium falciparum Pf3D7. Put plainly: microbe, parasite or virus in culture. Details: species or system P. falciparum 3D7 in human red blood cells. Particulars: Erythrocyte, read-out: EC50 (nM) Pf3D7.

What is called IC50 is the concentration that inhibits the measured activity by half. `C[C@H]1[C@@H](CC(=O)NCCC(=O)N[C@@H](CC(=O)NC(C)(C)C)C(=O)NCCNC(=O)c2cc(-c3ccccc3F)ccc2F)O[C@@H]2O[C@@]3(C)CC[C@H]4[C@H](C)CC[C@@H]1[C@@]24OO3` [ATZ3]: the IC50 in experiment [1] turned out to be 260 ± 51 nM; in experiment [2] it was 2.4 ± 0.4 nM.
In the case of `C[C@H]1[C@@H](CC(=O)NCC(=O)N[C@@H](CC(=O)NC(C)(C)C)C(=O)NCCNC(=O)c2cc(-c3ccccc3F)ccc2F)O[C@@H]2O[C@@]3(C)CC[C@H]4[C@H](C)CC[C@@H]1[C@@]24OO3` [ATZ2], the IC50 came to 73 ± 19 nM in experiment [1] and 210 ± 40 nM in experiment [3].
For orientation: EC50 means the concentration needed to bring the measured effect to its halfway point. For the compound `C[C@H]1[C@H](OC(=O)CCC(=O)N[C@@H](CC(=O)NC(C)(C)C)C(=O)NCCNC(=O)c2cc(-c3ccccc3F)ccc2F)O[C@@H]2O[C@@]3(C)CC[C@H]4[C@H](C)CC[C@@H]1[C@@]24OO3` [WZ-13, (3R,5aS,6R,8aS,9R,10S,12R,12aR)-3,6,9-trimethyldecahydro-12H-3,12-epoxy[1,2]dioxepino[4,3-i]isochromen-10-yl 4-(((S)-4-(tert-butylamino)-1-((2-(2',4-difluoro-[1,1'-biphenyl]-3-carboxamido)ethyl)amino)-1,4-dioxobutan-2-yl)amino)-4-oxobutanoate], the values for the IC50 in experiment [4], in experiment [5] and in experiment [6] were 5.5 ± 3.8 nM, 158 ± 50 nM and 440 ± 110 nM, respectively. In experiment [7], the EC50 stood at 2.5 ± 0.7 nM.
As to `C[C@H]1[C@@H](CC(=O)N[C@@H](CC(=O)NC(C)(C)C)C(=O)NCCNC(=O)c2cc(-c3ccccc3F)ccc2F)O[C@@H]2O[C@@]3(C)CC[C@H]4[C@H](C)CC[C@@H]1[C@@]24OO3` [ATZ1], the IC50 in experiment [1] is 650 ± 94 nM; in experiment [3] it was 3600 nM; in experiment [2], 63.2 ± 11 nM.
As to `C[C@H]1[C@H](OC(=O)CCC(=O)N[C@@H](CC(=O)NC(C)(C)C)C(=O)NCCNC(=O)c2cc(-c3ccccc3)ccn2)O[C@@H]2O[C@@]3(C)CC[C@H]4[C@H](C)CC[C@@H]1[C@@]24OO3` [WZ-06, (3R,5aS,6R,8aS,9R,10S,12R,12aR)-3,6,9-trimethyldecahydro-12H-3,12-epoxy[1,2]dioxepino[4,3-i]isochromen-10-yl 4-(((S)-4-(tert-butylamino)-1,4-dioxo-1-((2-(4-phenylpicolinamido)ethyl)amino)butan-2-yl)amino)-4-oxobutanoate], the IC50 in experiment [4] was 13.5 ± 7.6 nM; in experiment [5] it was 1100 nM. Moreover, the EC50 in experiment [7] worked out at 3.6 ± 0.01 nM.
With `C[C@H]1[C@H](OC(=O)CCC(=O)N[C@@H](CC(=O)NC(C)(C)C)C(=O)NCCNC(=O)c2cc(-c3ccccc3)ccn2)O[C@@H]2O[C@@]3(C)CC[C@H]4[C@H](C)CC[C@@H]1[C@@]24OO3` [WZ-06], 6 nM corresponded to half-maximal inhibition in experiment [2] (IC50).
Still for that read-out and setting: the figure for `C[C@H]1[C@H](OC(=O)CCC(=O)N[C@@H](CC(=O)NC(C)(C)C)C(=O)NCCNC(=O)c2cc(-c3ccccc3F)ccc2F)O[C@@H]2O[C@@]3(C)CC[C@H]4[C@H](C)CC[C@@H]1[C@@]24OO3` [WZ-13] is 2 nM.
As for `CC(C)(C)NC(=O)C[C@H](NC(=O)CCC(=O)O)C(=O)NCCNC(=O)c1cc(-c2ccccc2F)ccc1F` [WZ-20, (S)-4-((4-(tert-butylamino)-1-((2-(2',4-difluoro-[1,1'-biphenyl]-3-carboxamido)ethyl)amino)-1,4-dioxobutan-2-yl)amino)-4-oxobutanoic acid], the IC50 in experiment [4] came to 6 ± 0.005 nM; in experiment [5] it was 3490 nM; in experiment [6], 34300 nM. Besides, the 50% effective concentration (EC50) in experiment [7] came out at 50.8 ± 0.7 nM.
Consider `C[C@H]1[C@@H](CC(=O)NCCCC(=O)N[C@@H](CC(=O)NC(C)(C)C)C(=O)NCCNC(=O)c2cc(-c3ccccc3F)ccc2F)O[C@@H]2O[C@@]3(C)CC[C@H]4[C@H](C)CC[C@@H]1[C@@]24OO3` [ATZ4], for which the IC50 came to 200 ± 57 nM in experiment [1] and 890 ± 140 nM in experiment [3].
The corresponding values for `CC(C)(C)NC(=O)C[C@H](NC(=O)CCCNC(=O)OC(C)(C)C)C(=O)NCCNC(=O)c1cc(-c2ccccc2F)ccc1F` [PI01] are 200 ± 46 nM and 2000 nM.
Take `C[C@H]1[C@H](OC(=O)CCC(=O)O)O[C@@H]2O[C@@]3(C)CC[C@H]4[C@H](C)CC[C@@H]1[C@@]24OO3` [Artesunate]: the IC50 in experiment [4], in experiment [5] and in experiment [6] was greater than 100000 nM throughout. Besides, the EC50 in experiment [7] was found to be 6.2 ± 4 nM.
